Reference: US20230271941A1, “COMPOUNDS AND COMPOSITIONS FOR TREATING CONDITIONS ASSOCIATED WITH STING ACTIVITY” (IFM Due, Inc., priority 2020, published 2023)

These compounds were tested against T1, hSTING (Homo sapiens, UniProt Q86WV6, G230A/H232R/R293Q/R71H) (assay: STING reporter assay: THP1-Dual KO-IFNAR2 cells stimulated with 2′3′cGAMP, luciferase reporter activity). Conditions: 15 μM 2′3′cGAMP transfected with Lipofectamine 2000, 24 h, luciferase reporter (QUANTI-Luc).
T1 construct: host or cells: THP1-Dual KO-IFNAR2 cells
T1 sequence (Q86WV6 whole entry R71H/G230A/H232R/R293Q): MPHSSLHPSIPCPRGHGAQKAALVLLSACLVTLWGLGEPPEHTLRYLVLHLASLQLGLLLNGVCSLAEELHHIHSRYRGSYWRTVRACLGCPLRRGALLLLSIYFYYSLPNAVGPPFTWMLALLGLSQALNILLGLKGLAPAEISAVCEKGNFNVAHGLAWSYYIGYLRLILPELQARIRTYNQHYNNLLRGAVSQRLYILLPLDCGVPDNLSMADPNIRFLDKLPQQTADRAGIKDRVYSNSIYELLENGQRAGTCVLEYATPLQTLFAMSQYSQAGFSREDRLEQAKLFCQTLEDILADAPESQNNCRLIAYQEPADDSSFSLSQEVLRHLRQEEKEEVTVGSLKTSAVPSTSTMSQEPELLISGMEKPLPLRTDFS
Format: cell-based
Protocol: STING pathway activation by the compounds described herein was measured using THP1-Dual™ cells (KO-IFNAR2).
THP1-Dual™ KO-IFNAR2 Cells (obtained from invivogen) were maintained in RPMI, 10% FCS, 5 ml P/S, 2 mM L-glut, 10 mM Hepes, and 1 mM sodium pyruvate. Compounds were spotted in empty 384 well tissue culture plates (Greiner 781182) by Echo for a final concentration of 0.0017-100 μM. Cells were plated into the TC plates at 40 μL per well, 2×10E6 cells/mL. For activation with STING ligand, 2′3′cGAMP (MW 718.38, obtained from Invivogen), was prepared in Optimem media.
The following solutions were prepared for each 1×384 plate: • Solution A: 2 mL Optimem with one of the following stimuli: • 60 μL of 10 mM 2′3′cGAMP→150 μM stock • Solution B: 2 mL Optimem with 60 μL Lipofectamine 2000→Incubate 5 min at RT
2 mL of solution A and 2 ml Solution B was mixed and incubated for 20 min at room temperature (RT). 20 μL of transfection solution (A+B) was added on top of the plated cells, with a final 2′3′cGAMP concentration of 15 μM. The plates were then centrifuged immediately at 340 g for 1 minute, after which they were incubated at 37° C., 5% CO2, >98% humidity for 24 h. Luciferase reporter activity was then measured. EC50 values were calculated by using standard methods known in the art.
Luciferase reporter assay: 10 μL of supernatant from the assay was transferred to white 384-plate with flat bottom and squared wells. One pouch of QUANTI-Luc™ Plus was dissolved in 25 mL of water. 100 μL of QLC Stabilizer per 25 mL of QUANTI-Luc™Plus solution was added. 50 μL of QUANTI-Luc™ Plus/QLC solution per well was then added. Luminescence was measured on a Platereader (e.g., Spectramax I3X (Molecular Devices GF3637001)).
Luciferase reporter activity was then measured. EC50 values were calculated by using standard methods known in the art.

Compound	EC50
O=C(Nc1c[nH]c2c(F)cncc12)c1ccn(Cc2ccc(C(F)(F)F)cc2)n1 [Compound 131, N-(7-fluoro-1H-pyrrolo[3,2-c]pyridin-3-yl)-1-(4-(trifluoromethyl)benzyl)-1H-pyrazole-3-carboxamide]	1000 to 5000 nM
O=C(Nc1c[nH]c2cc(F)c(F)cc12)c1cnn(CC2CCC(F)(F)CC2)c1 [Compound 122, N-(5,6-difluoro-1H-indol-3-yl)-1-((4,4-difluorocyclohexyl)methyl)-1H-pyrazole-4-carboxamide]	200 to 1000 nM
COc1cncc2c(NC(=O)c3cnn(Cc4ccc(C(F)(F)F)cc4)c3)c[nH]c12 [Compound 117, N-(7-methoxy-1H-pyrrolo[3,2-c]pyridin-3-yl)-1-(4-(trifluoromethyl)benzyl)-1H-pyrazole-4-carboxamide]	5000 to 100000 nM
COc1ccc2[nH]cc(NC(=O)c3ccn(Cc4ccc(C(F)(F)F)cc4)n3)c2n1 [Compound 134, N-(5-methoxy-1H-pyrrolo[3,2-b]pyridin-3-yl)-1-(4-(trifluoromethyl)benzyl)-1H-pyrazole-3-carboxamide]	1000 to 5000 nM
O=C(Nc1c[nH]c2cc(F)ccc12)c1cnn(Cc2ccc(C(F)(F)F)cc2)c1 [Compound 143, N-(6-fluoro-1H-indol-3-yl)-1-(4-(trifluoromethyl)benzyl)-1H-pyrazole-4-carboxamide]	200 to 1000 nM
O=C(Nc1c[nH]c2ccccc12)c1ncc(-c2ccc(C(F)(F)F)cc2)[nH]1 [Compound 129, N-(1H-indol-3-yl)-5-(4-(trifluoromethyl)phenyl)-1H-imidazole-2-carboxamide]	200 to 1000 nM
Cn1nc(C(=O)Nc2c[nH]c3cc(F)c(F)cc23)cc1Cc1ccc(C(F)(F)F)cc1 [Compound 113, N-(5,6-difluoro-1H-indol-3-yl)-1-methyl-5-(4-(trifluoromethyl)benzyl)-1H-pyrazole-3-carboxamide]	200 to 1000 nM
N#Cc1cccc(-c2cc(C(=O)Nc3c[nH]c4cc(F)c(F)cc34)no2)c1 [Compound 123, 5-(3-cyanophenyl)-N-(5,6-difluoro-1H-indol-3-yl)isoxazole-3-carboxamide]	200 to 1000 nM
O=C(Nc1c[nH]c2cc(F)c(F)cc12)c1cnn(C2CCCCC2)c1 [Compound 116, 1-cyclohexyl-N-(5,6-difluoro-1H-indol-3-yl)-1H-pyrazole-4-carboxamide]	1000 to 5000 nM
Cc1cc(C(=O)Nc2c[nH]c3cc(F)c(F)cc23)nn1Cc1ccc(C(F)(F)F)cc1 [Compound 114, N-(5,6-difluoro-1H-indol-3-yl)-5-methyl-1-(4-(trifluoromethyl)benzyl)-1H-pyrazole-3-carboxamide]	200 to 1000 nM
O=C(Nc1c[nH]c2cc(F)c(F)cc12)c1csc(Cc2ccccc2)n1 [Compound 112, 2-benzyl-N-(5,6-difluoro-1H-indol-3-yl)-1,3-thiazole-4-carboxamide]	1000 to 5000 nM
Cc1cncc2c(NC(=O)c3cnn(Cc4ccc(C(F)(F)F)cc4)c3)c[nH]c12 [Compound 125, N-(7-methyl-1H-pyrrolo[3,2-c]pyridin-3-yl)-1-(4-(trifluoromethyl)benzyl)-1H-pyrazole-4-carboxamide]	1000 to 5000 nM
O=C(Nc1c[nH]c2cc(F)c(F)cc12)c1cc(-c2ccc(Cl)cc2)n[nH]1 [Compound 108, 3-(4-chlorophenyl)-N-(5,6-difluoro-1H-indol-3-yl)-1H-pyrazole-5-carboxamide]	200 to 1000 nM
O=C(Nc1c[nH]c2cc(Cl)c(F)cc12)c1cnn(Cc2ccc(C(F)(F)F)cc2)c1 [Compound 107, N-(6-chloro-5-fluoro-1H-indol-3-yl)-1-(4-(trifluoromethyl)benzyl)-1H-pyrazole-4-carboxamide]	200 to 1000 nM

The next lines start with the values.

EC50	Compound
40 to 200 nM	O=C(Nc1c[nH]c2cc(F)c(F)cc12)c1cc(CCc2ccc(C(F)(F)F)cc2)no1 [Compound 150, N-(5,6-difluoro-1H-indol-3-yl)-3-(4-(trifluoromethyl)phenethyl)isoxazole-5-carboxamide]
1000 to 5000 nM	O=C(Nc1c[nH]c2ccccc12)c1cncn1Cc1ccc(C(F)(F)F)c(Cl)c1 [Compound 132, 1-(3-chloro-4-(trifluoromethyl)benzyl)-N-(1H-indol-3-yl)-1H-imidazole-5-carboxamide]
1000 to 5000 nM	O=C(Nc1c[nH]c2cc(F)c(F)cc12)c1nn(Cc2ccc(C(F)(F)F)cc2)c(=O)[nH]1 [Compound 142, N-(5,6-difluoro-1H-indol-3-yl)-5-oxo-1-(4-(trifluoromethyl)benzyl)-4,5-dihydro-1H-1,2,4-triazole-3-carboxamide]
200 to 1000 nM	O=C(Nc1c[nH]c2cc(F)c(F)cc12)c1cc(-c2ccccc2)[nH]n1 [Compound 175, N-(5,6-difluoro-1H-indol-3-yl)-5-phenyl-1H-pyrazole-3-carboxamide]
200 to 1000 nM	Cc1cc(-n2cc(C(=O)Nc3c[nH]c4cc(F)c(F)cc34)nn2)cnc1OCC(F)(F)F [Compound 165, N-(5,6-difluoro-1H-indol-3-yl)-1-(5-methyl-6-(2,2,2-trifluoroethoxy)pyridin-3-yl)-1H-1,2,3-triazole-4-carboxamide]
5000 to 100000 nM	CC(C)(O)CCc1ncc(-n2cc(C(=O)Nc3c[nH]c4cc(F)c(F)cc34)nn2)cc1F [Compound 179, N-(5,6-difluoro-1H-indol-3-yl)-1-[5-fluoro-6-(3-hydroxy-3-methylbutyl)pyridin-3-yl]-1H-1,2,3-triazole-4-carboxamide]
200 to 1000 nM	Cn1nc(C(=O)Nc2c[nH]c3cc(F)c(F)cc23)cc1-c1ccccc1 [Compound 172, N-(5,6-difluoro-1H-indol-3-yl)-1-methyl-5-phenyl-1H-pyrazole-3-carboxamide]
200 to 1000 nM	O=C(Nc1c[nH]c2ccccc12)c1cn(-c2ccc(C(F)(F)F)c(Cl)c2)cn1 [Compound 135, 1-(3-chloro-4-(trifluoromethyl)phenyl)-N-(1H-indol-3-yl)-1H-imidazole-4-carboxamide]
5000 to 100000 nM	O=C(Nc1c[nH]c2cc(F)c(F)cc12)c1cc(-c2ccncc2)[nH]n1 [Compound 176, N-(5,6-difluoro-1H-indol-3-yl)-5-(pyridin-4-yl)-1H-pyrazole-3-carboxamide]
200 to 1000 nM	O=C(Nc1c[nH]c2cc(F)c(F)cc12)c1cc(-c2ccc(Cl)cc2)on1 [Compound 167, 5-(4-chlorophenyl)-N-(5,6-difluoro-1H-indol-3-yl)isoxazole-3-carboxamide]
40 to 200 nM	Cc1cc(Cn2cc(C(=O)Nc3c[nH]c4cc(F)c(F)cc34)cn2)cnc1OCC(F)(F)F [Compound 163, N-(5,6-difluoro-1H-indol-3-yl)-1-((5-methyl-6-(2,2,2-trifluoroethoxy)pyridin-3-yl)methyl)-1H-pyrazole-4-carboxamide]
200 to 1000 nM	O=C(Nc1c[nH]c2cc(F)c(F)cc12)c1cc(CC2CCN(CC(F)(F)F)CC2)on1 [Compound 152, N-(5,6-difluoro-1H-indol-3-yl)-5-((1-(2,2,2-trifluoroethyl)piperidin-4-yl)methyl)isoxazole-3-carboxamide]
40 to 200 nM	Cn1nc(C(=O)Nc2c[nH]c3cc(F)c(Cl)cc23)cc1Cc1ccc(C(F)(F)F)cc1 [Compound 162, N-(5-chloro-6-fluoro-1H-indol-3-yl)-1-methyl-5-(4-(trifluoromethyl)benzyl)-1H-pyrazole-3-carboxamide]
40 to 200 nM	O=C(Nc1c[nH]c2cc(F)c(F)cc12)c1cc(CC2CCN(CC(F)(F)F)CC2)no1 [Compound 155, N-(5,6-difluoro-1H-indol-3-yl)-3-((1-(2,2,2-trifluoroethyl)piperidin-4-yl)methyl)isoxazole-5-carboxamide]
1000 to 5000 nM	O=C(Nc1c[nH]c2cc(F)c(F)cc12)c1cn(-c2ccnc(COCC(F)(F)F)c2)nn1 [Compound 156, N-(5,6-difluoro-1H-indol-3-yl)-1-(2-((2,2,2-trifluoroethoxy)methyl)pyridin-4-yl)-1H-1,2,3-triazole-4-carboxamide]
200 to 1000 nM	O=C(Nc1c[nH]c2cc(F)c(F)cc12)c1cc(-c2cccc(Cl)c2)[nH]n1 [Compound 174, 5-(3-chlorophenyl)-N-(5,6-difluoro-1H-indol-3-yl)-1H-pyrazole-3-carboxamide]
1000 to 5000 nM	O=C(Nc1c[nH]c2ccccc12)c1cn(Cc2ccc(C(F)(F)F)cn2)cn1 [Compound 130, N-(1H-indol-3-yl)-1-((5-(trifluoromethyl)pyridin-2-yl)methyl)-1H-imidazole-4-carboxamide]
1000 to 5000 nM	CC(C)(C)OC(=O)N1CCC(n2cc(C(=O)Nc3c[nH]c4cc(F)c(F)cc34)nn2)CC1 [Compound 169, tert-butyl 4-(4-((5,6-difluoro-1H-indol-3-yl)carbamoyl)-1H-1,2,3-triazol-1-yl)piperidine-1-carboxylate]
200 to 1000 nM	O=C(Nc1c[nH]c2cc(F)c(F)cc12)c1cc(-c2ccc(F)cc2F)on1 [Compound 170, N-(5,6-difluoro-1H-indol-3-yl)-5-(2,4-difluorophenyl)isoxazole-3-carboxamide]
